Where “and” joins values, the source holds several entries; their conditions need not be identical. Equal entries are not always repeated.
Legend:
[1] = system: CAL-148; conditions: 72 h
Method in brief: (§1)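 Rows with a drug sensitivity score of zero were dropped, and EC50 was taken from the fitted percent-inhibition dose-response curve, censored at the highest concentration. Data were normalised on each plate to vehicle and a positive kill control and checked by Z'-factor. The assay seeded breast cancer cell lines in 20 µl onto 384-well plates pre-loaded with compound in 5 µl medium for 72 h, then added 2.5 µl CellTiter-Blue for 2 h at 37 °C and read fluorescence at 560/590 nm.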

[2] = system: CAL-51; conditions: 72 h
Method in brief: as §1

[3] = system: CAL-85-1; conditions: 72 h
Method in brief: as §1

[4] = system: DU-4475; conditions: 72 h
Method in brief: as §1

[5] = system: HDQ-P1; conditions: 72 h
Method in brief: as §1

[6] = system: MDA-MB-453; conditions: 72 h
Method in brief: as §1

[7] = system: BT-549; conditions: 72 h
Method in brief: as §1

[8] = system: HCC1599; conditions: 72 h
Method in brief: as §1

[9] = system: MDA-MB-436; conditions: 72 h
Method in brief: as §1

[10] = system: MFM-223; conditions: 72 h
Method in brief: as §1

[11] = system: CAL-85-1; conditions: 72 h; remark: listed apart in the source
Experimental: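 Drug sensitivity and resistance testing (DSRT) of breast cancer cell lines in 384-well plates, 5 concentrations in 10-fold dilutions over a compound-specific 10,000-fold range. After 72 h, cytotoxicity was read by CellTox Green fluorescence and viability by CellTiter-Glo luminescence (multiplexed), normalised to DMSO and benzethonium chloride controls. EC50 is the inflection point of the fitted dose-response curve (bottom asymptote free, so it can be relative for partial curves) and is censored at the highest tested concentration. Rows with DSS 0 (no meaningful response) were excluded.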

[12] = system: HCC1143; assay: normalised viability (% of control), CellTiter-Blue; higher = more viable cells (about 100 = DMSO control); conditions: incubation time: 72 h
Method in brief: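 Each entry is normalised viability at a single listed concentration within a series. It comes from breast cancer cell lines incubated 72 h with compound in 384-well plates, then measured with CellTiter-Blue fluorescence at 560/590 nm. Every plate was normalised between vehicle (100) and a positive kill control (0).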

[13] = system: CAL-148; assay: normalised viability (% of control), CellTiter-Blue; higher = more viable cells (about 100 = DMSO control); conditions: incubation time: 72 h
Experimental: (§2)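 DSRT, CellTiter-Blue viability, 72 h incubation. Signal is normalised to DMSO and benzethonium chloride controls. Value is the normalised response at dose 9.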

[14] = system: CAL-51; assay: as above; conditions: incubation time: 72 h
Experimental: as §2

[15] = system: CAL-85-1; assay: as above; conditions: incubation time: 72 h
Experimental: as §2

[16] = system: DU-4475; assay: as above; conditions: incubation time: 72 h
Experimental: as §2

[17] = system: HDQ-P1; assay: as above; conditions: incubation time: 72 h
Experimental: as §2

[18] = system: MDA-MB-453; assay: as above; conditions: incubation time: 72 h
Experimental: as §2

[19] = system: BT-474; assay: normalised response (% of control), CellTiter-Glo; higher = more viable cells (100 = DMSO, 0 = benzethonium chloride kill control); conditions: incubation time: 72 h
Method in brief: (§3)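 Each entry is the normalised signal at a single concentration within a series. The series comprised 5 concentrations in 10-fold steps over a compound-specific 10,000-fold range, placed in 384-well plates into which breast cancer cell lines were seeded as 20 µl suspension and incubated 72 h. CellTox Green (485/520 nm) fluorescence and then CellTiter-Glo luminescence were read, with signals normalised per plate to 0.1 % DMSO (100) and a positive kill control (0).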

[20] = system: HCC1599; assay: as above; conditions: incubation time: 72 h
Method in brief: as §3

[21] = system: HCC1937; assay: as above; conditions: incubation time: 72 h
Method in brief: as §3

[22] = system: SK-BR-3; assay: as above; conditions: incubation time: 72 h
Method in brief: as §3

EC50, CellTiter-Blue viability [6] [nM]	EC50, CellTiter-Blue viability [7] [nM]	EC50, CellTiter-Blue viability [8] [nM]	EC50, CellTiter-Blue viability [9] [nM]	SMILES	EC50, CellTiter-Blue viability [1] [nM]	EC50, CellTiter-Blue viability [2] [nM]	EC50, CellTiter-Blue viability [3] [nM]	EC50, CellTiter-Blue viability [4] [nM]	EC50, CellTiter-Blue viability [5] [nM]	EC50, CellTiter-Blue viability [10] [nM]	EC50, CellTox Green [11] [nM]	normalised viability ([12]; 100 nM)	further results
72.8	196	121	234	COc1ccc(-c2cc3c(C)nc(N)nc3n([C@H]3CC[C@H](OCCO)CC3)c2=O)cn1	246	140	301	610	66.9	180	4090	92.8%	–
4.36	146	21.9	279	Cn1cc(CNCC2CCN(c3ncc(C(=O)NO)cn3)CC2)c2ccccc21	11.9	62.1	17.2	14.3	18.2	33.1	–	–	normalised viability ([12]; 10 nM): 64.8%
4980	–	756	–	O=C(NC[C@H](O)CO)c1ccncc1Nc1ccc(I)cc1F	9.85	663	1660	11.7	161	–	–	66%	–
245	798	2120	998	O=C(Nc1c[nH]nc1-c1nc2ccc(CN3CCOCC3)cc2[nH]1)NC1CC1 [AT9283]	1370	555	901	109	771	886	–	72.8%	–
310	–	270	–	COc1cc(CCc2cc(NC(=O)c3ccc(N4CC(C)NC(C)C4)cc3)n[nH]2)cc(OC)c1 (configuration not stated) [AZD4547]	632	548	529	536	–	46.6	–	–	normalised viability ([12]; 10 nM): 86.9%
40.9	1130	38.1	1480	CO[C@@H](C(=O)N1Cc2[nH]nc(NC(=O)c3ccc(N4CCN(C)CC4)cc3)c2C1)c1ccccc1 [Danusertib]	21.6	348	435	538	427	–	–	87.4%	–
–	58.5	–	78.5	Cc1nc(Nc2ncc(C(=O)Nc3c(C)cccc3Cl)s2)cc(N2CCN(CCO)CC2)n1 [Dasatinib]	–	22.2	83.9	–	12.4	427	108	–	–
> 10000	–	–	–	O=S(=O)(c1cccc2cnccc12)N1CCCNCC1 [Fasudil]	–	–	–	–	–	1690	–	87.2%	–
98.9	386	103	783	Cc1c(CN2CCN(C(=O)[C@H](C)O)CC2)sc2c(N3CCOCC3)nc(-c3cnc(N)nc3)nc12 [GDC-0980]	306	198	347	734	139	139	3200	71.5%	–
588	2620	873	2020	Nc1ccccc1NC(=O)c1ccc(CNc2nccc(-c3cccnc3)n2)cc1 [Mocetinostat]	1790	3050	1530	757	9490	4200	2380	81.5%	–
608	8260	–	107	Cc1ccc(Nc2nccc(N(C)c3ccc4c(C)n(C)nc4c3)n2)cc1S(N)(=O)=O [Pazopanib]	–	–	–	–	> 10000	34.6	> 10000	85.8%	–
6140	–	–	–	O=C(CCBr)N1CCN(C(=O)CCBr)CC1 [Pipobroman]	–	–	–	–	–	6190	–	87.8%	–
171	–	–	–	C[C@]12C=CC(=O)C=C1CC[C@@H]1[C@@H]2[C@@H](O)C[C@@]2(C)[C@H]1CC[C@]2(O)C(=O)CO [Prednisolone]	–	–	–	–	–	–	–	97.8%	–
–	27.1	–	–	CNC(=O)c1cc(Oc2ccc(NC(=O)Nc3ccc(Cl)c(C(F)(F)F)c3)cc2)ccn1 [Sorafenib]	–	–	159	–	–	952	–	–	normalised viability ([12]; 10 nM): 101% and 80.6%
457	77.1	102	110	CC[C@@]1(O)C(=O)OCc2c1cc1n(c2=O)Cc2cc3c(CN(C)C)c(O)ccc3nc2-1 [Topotecan]	63.7	362	613	118	> 1000	–	913	–	normalised viability ([12]; 10 nM): 79.7%

Further lines, the compound ahead of its results:

SMILES	EC50, CellTiter-Blue viability [6] [nM]	EC50, CellTiter-Blue viability [7] [nM]	EC50, CellTiter-Blue viability [8] [nM]	EC50, CellTiter-Blue viability [9] [nM]	EC50, CellTiter-Blue viability [1] [nM]	EC50, CellTiter-Blue viability [2] [nM]	EC50, CellTiter-Blue viability [3] [nM]	EC50, CellTiter-Blue viability [4] [nM]	EC50, CellTiter-Blue viability [5] [nM]	EC50, CellTiter-Blue viability [10] [nM]	EC50, CellTox Green [11] [nM]	normalised viability ([12]; 100 nM)	further results
Cc1cccc(-c2nn3c(c2-c2ccnc4ccc(C(N)=O)cc24)CCC3)n1	–	–	–	–	–	–	–	–	–	–	–	–	normalised viability ([12]; 10 nM): 91%
Nc1nc(=O)c2c([nH]1)NCC(CNc1ccc(C(=O)N[C@@H](CCC(=O)O)C(=O)O)cc1)N2C=O (mixture of isomers) [Folinic acid]	–	–	–	–	–	–	–	–	–	–	–	–	normalised viability ([12]; 9.9 nM): 86.1%
CC/C(=C(\c1ccc(O)cc1)c1ccc(OCCN(C)C)cc1)c1ccccc1 [4-hydroxytamoxifen]	–	–	–	–	–	–	–	–	–	–	7760	–	–
CC(=O)OC[C@H]1O[C@@H]([S-])[C@H](OC(C)=O)[C@@H](OC(C)=O)[C@@H]1OC(C)=O.CCP(CC)CC.[Au+] [Auranofin]	–	–	–	–	–	–	–	–	–	–	917	–	–
CCC/C=C/C=C/C(=O)O[C@H]1/C(=C/C(=O)OC)C[C@H]2C[C@H]([C@@H](C)O)OC(=O)C[C@H](O)C[C@@H]3C[C@H](OC(C)=O)C(C)(C)[C@](O)(C[C@@H]4C/C(=C/C(=O)OC)C[C@H](/C=C/C(C)(C)[C@]1(O)O2)O4)O3 [Bryostatin 1]	–	–	> 100	–	> 100	–	> 100	–	–	–	–	–	normalised viability ([12]; 1 nM): 81.2%
CS(=O)(=O)N1CCN(Cc2cc3nc(-c4cccc5[nH]ncc45)nc(N4CCOCC4)c3s2)CC1 [GDC-0941]	212	1540	709	2390	960	569	1070	5650	156	721	–	81.9%	–
Nc1cccc2c1CN(C1CCC(=O)NC1=O)C2=O (configuration not stated) [Lenalidomide]	–	–	–	–	–	–	–	–	–	–	–	81.8% and 68%	–
C[C@]12O[C@H](C[C@]1(O)CO)n1c3ccccc3c3c4c(c5c6ccccc6n2c5c31)CNC4=O [Lestaurtinib]	174	672	201	202	–	330	284	186	–	133	356	–	normalised viability ([12]; 10 nM): 113%
O=C1c2c(O)ccc(O)c2C(=O)c2c(NCCNCCO)ccc(NCCNCCO)c21 [Mitoxantrone]	539	350	52.1	684	26.2	10.7	182	8.91	58.6	522	–	–	normalised viability ([12]; 10 nM): 66.9%
CS(=O)(=O)N1CCN(Cc2cc3nc(-c4cccc5[nH]ncc45)nc(N4CCOCC4)c3s2)CC1 [Pictilisib]	–	–	–	–	–	–	–	–	–	–	2150	–	–
O=C(NC[C@H](O)CO)c1ccncc1Nc1ccc(I)cc1F [Pimasertib]	–	–	–	–	–	–	–	–	–	–	1340	–	–
O=C(CCBr)N1CCN(C(=O)CCBr)CC1 [Pipobroman] (10000 nM)	–	–	–	–	–	–	–	–	–	–	–	–	normalised viability [13]: 84.8%; normalised viability [14]: 108%; normalised viability [15]: 85.6%; normalised viability [16]: 112%; normalised viability [17]: 109%; normalised viability [18]: 7.05%; normalised response [19]: 94.7%; normalised response [20]: 99%; normalised response [21]: 98.2%; normalised response [22]: 108%
c1cc(CN2CCCNCCNCCCNCC2)ccc1CN1CCCNCCNCCCNCC1 [Plerixafor]	–	–	–	–	–	–	–	–	–	–	–	–	normalised viability ([12]; 25 nM): 83.4%
C[C@]12C=CC(=O)C=C1CC[C@@H]1[C@@H]2[C@@H](O)C[C@@]2(C)[C@H]1CC[C@]2(O)C(=O)CO [Prednisolone] (10000 nM)	–	–	–	–	–	–	–	–	–	–	–	–	normalised viability [13]: 99.2%; normalised viability [14]: 103%; normalised viability [15]: 109%; normalised viability [16]: 102%; normalised viability [17]: 120%; normalised viability [18]: 79.8%; normalised response [19]: 144%; normalised response [20]: 102%; normalised response [21]: 101%; normalised response [22]: 96.7%
Cn1cc(CNCC2CCN(c3ncc(C(=O)NO)cn3)CC2)c2ccccc21 [Quisinostat]	–	–	–	–	–	–	–	–	–	–	18.5	–	–
CCN(CC)CCNC(=O)c1c(C)[nH]c(/C=C2\C(=O)Nc3ccc(F)cc32)c1C [Sunitinib]	–	–	–	–	–	–	–	–	721	–	–	–	–
